The source of these data is patent publication US9913905B2 (EAGLE BIOLOGICS, INC., priority 2013, dated 2018).

One data set has as its system biosimilar AVASTIN®. As to the kind of experiment: Viscosity of concentrated aqueous solutions of biosimilar AVASTIN® (mVROC microfluidic viscometer). The class given is physicochemical.
In data set [1] the test system is respiratory syncytial virus. The settings on record: two Phase III clinical trials in the pediatric population; cited from earlier work.
The next data set concerns TYSABRI®. As to the kind of experiment: Viscosity of concentrated aqueous solutions of TYSABRI® (mVROC microfluidic viscometer). The class given is physicochemical. The conditions noted are these: organophosphate 0.25M.
A further data set deals with HERCEPTIN®. As to the kind of experiment: Viscosity of concentrated aqueous solutions of HERCEPTIN® (mVROC microfluidic viscometer). In kind it is physicochemical. The conditions noted are these: organophosphate 0.25M.
The subject of data set [2] is therapeutically relevant mAbs. The conditions noted are these: in some cases; Table 3.
The next data set relates to biosimilar RITUXAN®. As to the kind of experiment: Viscosity of concentrated aqueous solutions of biosimilar RITUXAN® (mVROC microfluidic viscometer). The class given is physicochemical. The conditions noted are these: organophosphate 0.10M. On the procedure:
(unless otherwise indicated).
A commercially-obtained biosimilar AVASTIN® (100-400 mg) containing pharmaceutical excipients (Polysorbate 20, phosphate and citrate buffers, mannitol, and NaCl) was purified. […] Samples buffer exchanged into 2 mM PB were first aliquoted. […] For samples buffer exchanged into 20 mM PB (PB control samples), the collected protein solution was freeze-dried. […] Using the same protocol, formulations containing biosimilar ERBITUX®, TYSABRI®, HERCEPTIN®, and […]® were also prepared.

The test system of a further data set is REMICADE®. As to the kind of experiment: Viscosity of concentrated aqueous solutions of […]® (mVROC microfluidic viscometer). The class given is physicochemical.
The test system of another data set is biosimilar ERBITUX®. As to the kind of experiment: Viscosity of concentrated aqueous solutions of biosimilar ERBITUX® (mVROC microfluidic viscometer). In kind it is physicochemical. The conditions noted are these: Biosimilar ERBITUX® 215 mg/mL; excipient 0.25M.
Setting [3] is: [Excipient] 0.10 M, [mAb] 217 mg/mL, 25° C., pH 7.

“And” between values parts separate entries of the source, which are not always exact repeats. Equal entries are not always repeated.

As for `Nc1ncnc2c1ncn2[C@@H]1O[C@H](COP(=O)(O)OP(=O)([O-])OP(=O)([O-])O)[C@@H](O)[C@H]1O.[Na+].[Na+]` [ATP, adenosine triphosphate], the Viscosity in the data set on biosimilar AVASTIN® ([Excipient] 0.10 M, [mAb] 209 mg/mL, 25° C., pH 7) came out at 52.3 ± 2.3 cP; in the data set with biosimilar AVASTIN® (setting [3]), 80.7 ± 7.1 cP.

Regarding `Nc1ncnc2c1ncn2[C@@H]1O[C@H](COP(=O)(O)O)[C@@H](O)[C@H]1O` [AMP, Adenosine Monophosphate], the Viscosity in the data set with biosimilar AVASTIN® ([Excipient] 0.10 M, [mAb] 206 mg/mL, 25° C., pH 7) is 63.2 ± 1.6 cP.

Regarding `Nc1ncnc2c1ncn2[C@H]1C[C@H](O)[C@@H](COP(=O)(O)OP(=O)(O)OP(=O)(O)O)O1` [dATP-Tris, deoxyadenosine triphosphate], in the data set with biosimilar AVASTIN® ([Excipient] 0.10 M, [mAb] 196 mg/mL, 25° C., pH 7), the Viscosity is listed as 127 ± 0.2 cP.

As for “palivizumab: humanized mAb directed against an epitope in the A antigenic site of the F protein of respiratory syncytial virus”, the “Reduction of the risk of hospitalization due to respiratory syncytial virus infection” value in data set [1] is 55% and 45%.

In turn, `Nc1ccn([C@H]2C[C@H](O)[C@@H](COP(=O)(O)OP(=O)(O)OP(=O)(O)O)O2)c(=O)n1` [dCTP-Tris, deoxycytidine triphosphate] had a Viscosity with biosimilar AVASTIN® (setting [3]) of 325 ± 13 cP.

“nicotinamide adenine dinucleotide phosphate [NADP]”: the Viscosity with biosimilar AVASTIN® ([Excipient] 0.10 M, [mAb] 204 mg/mL, 25° C., pH 7) is given as 165 ± 23 cP; in the data set with biosimilar AVASTIN® ([Excipient] 0.25 M, [mAb] 186 mg/mL, 25° C., pH 7), 242 ± 16 cP.

The compound `Cc1cn([C@H]2CC(O)[C@@H](COP(=O)(O)OP(=O)(O)OP(=O)(O)O)O2)c(=O)[nH]c1=O` (some centres unmarked) [dTTP-Tris, deoxythymidine triphosphate] yielded a Viscosity in the data set with biosimilar AVASTIN® ([Excipient] 0.10 M, [mAb] 221 mg/mL, 25° C., pH 7) of 207 ± 6 cP.

As for `Nc1ncnc2c1ncn2[C@@H]1O[C@@H]2COP(=O)(O)OC2C1O` (some centres unmarked) [cAMP-Tris, cyclic adenosine monophosphate], the Viscosity in the data set with TYSABRI® (TYSABRI® 227 mg/mL) is reported as 80.1 ± 2.4 cP; in the data set on HERCEPTIN® (HERCEPTIN® 235 mg/mL), 79.5 ± 2.7 cP; in the data set with biosimilar RITUXAN® (Biosimilar RITUXAN® 199 mg/mL), 62.6 ± 1.7 cP; in the data set with biosimilar AVASTIN® (Table 2, [Excipient] 0.40 M, [biosimilar AVASTIN®] 176 mg/mL), 39.2 ± 4.3 cP; in the data set with biosimilar AVASTIN® (Table 2, [Excipient] 0.50 M, [biosimilar AVASTIN®] 178 mg/mL), 66.1 ± 0.4 cP; in the data set with biosimilar AVASTIN® (Table 3, Biosimilar AVASTIN® 216 mg/mL, organophosphate 0.25M), 85.7 ± 10.7 cP. Besides, the Viscosity with biosimilar AVASTIN® ([Excipient] 0.25 M, [mAb] 209 mg/mL, 25° C., pH 7) was found to be 62.1 ± 1.8 cP; with biosimilar AVASTIN® ([Excipient] 0.25 M, [mAb] 216 mg/mL, 25° C., pH 7), 85.7 ± 10.7 cP. Moreover, the Reduction of viscosity entry in data set [2] is “up to 9 fold”.

As to `C=C(OP(=O)(O)O)C(=O)O` [Phosphoenol pyruvate], the Viscosity in the data set on biosimilar AVASTIN® ([Excipient] 0.25 M, [mAb] 193 mg/mL, 25° C., pH 7) was >>200 cP.

On to `Nc1nc2c(ncn2[C@H]2CC(O)[C@@H](COP(=O)(O)OP(=O)(O)OP(=O)(O)O)O2)c(=O)[nH]1` (some centres unmarked) [dGTP-Tris, deoxyguanosine triphosphate], for which the Viscosity with biosimilar AVASTIN® (setting [3]) stood at 238 ± 31 cP.

In the case of `Cc1ncc(C[n+]2csc(CCOP(=O)(O)OP(=O)([O-])O)c2C)c(N)n1.Cc1nccn1CCCN` [TPP-APMI, thiamine pyrophosphate 1-(3-aminopropyl)-2-methyl-1H-imidazole], the Viscosity in the data set with REMICADE® (REMICADE® 223 mg/mL, organophosphate 0.25M) was 316 ± 11 cP; in the data set with TYSABRI® (TYSABRI® 238 mg/mL), 76.3 ± 3.2 cP; in the data set on HERCEPTIN® (HERCEPTIN® 221 mg/mL), 60.5 ± 0.3 cP; in the data set with biosimilar AVASTIN® (Table 2, [Excipient] 0.10 M, [biosimilar AVASTIN®] 191 mg/mL) it was 23.2 ± 0.9 cP; in the data set on biosimilar AVASTIN® (Table 2, [Excipient] 0.20 M, [biosimilar AVASTIN®] 180 mg/mL) it was 20.9 ± 0.4 cP; in the data set with biosimilar AVASTIN® (Table 2, [Excipient] 0.50 M, [biosimilar AVASTIN®] 180 mg/mL), 111 ± 1 cP.

Consider `Cc1ncc(C[n+]2csc(CCOP(=O)(O)OP(=O)(O)O)c2C)c(N)n1.[Cl-]` [TPP, thiamine pyrophosphate], for which the Viscosity was found to be 100 ± 9 cP in the data set with REMICADE® (REMICADE® 158 mg/mL, organophosphate 0.10M); 1773 ± 304 cP in the data set with REMICADE® (REMICADE® 232 mg/mL, organophosphate 0.25M); 156 ± 3 cP in the data set with HERCEPTIN® (HERCEPTIN® 240 mg/mL); 102 ± 16 cP with biosimilar RITUXAN® (Biosimilar RITUXAN® 193 mg/mL); 55.6 ± 4.8 cP with biosimilar ERBITUX®; 21.1 ± 1.7 cP with biosimilar AVASTIN® (Table 2, [Excipient] 0.10 M, [biosimilar AVASTIN®] 176 mg/mL). Moreover, the Viscosity was 129 ± 5 cP with biosimilar AVASTIN® (Table 2, [Excipient] 0.30 M, [biosimilar AVASTIN®] 191 mg/mL); 47.6 ± 2.7 cP in the data set on biosimilar AVASTIN® (Table 3, Biosimilar AVASTIN® 216 mg/mL, organophosphate 0.1M); 34.6 ± 2.1 cP in the data set on biosimilar AVASTIN® ([Excipient] 0.10 M, [mAb] 201 mg/mL, 25° C., pH 7); 47.6 ± 2.7 cP in the data set with biosimilar AVASTIN® ([Excipient] 0.10 M, [mAb] 216 mg/mL, 25° C., pH 7); 44.5 ± 0.9 cP in the data set on biosimilar AVASTIN® ([Excipient] 0.25 M, [mAb] 210 mg/mL, 25° C., pH 7). Moreover, in the data set with biosimilar AVASTIN® (Table 1, biosimilar AVASTIN®), the “Viscosity reducing ability among the organophosphates examined” value was “greatest viscosity reducing ability”.

With `CN(CC(=O)O)C(=N)NP(=O)(O)O` [Phosphocreatine], the Viscosity in the data set with biosimilar AVASTIN® ([Excipient] 0.25 M, [mAb] 231 mg/mL, 25° C., pH 7) was >>200 cP.

For the compound `Nc1nc2c(ncn2[C@@H]2O[C@H](COP(=O)(O)OP(=O)(O)OP(=O)(O)O)[C@@H](O)[C@H]2O)c(=O)[nH]1` [GTP], the Viscosity with biosimilar AVASTIN® ([Excipient] 0.10 M, [mAb] 205 mg/mL, 25° C., pH 7) came to 150 ± 12 cP.

`Nc1ncnc2c1ncn2[C@@H]1O[C@H](COP(=O)(O)OP(=O)(O)O)[C@@H](O)[C@H]1O` [ADP, Adenosine Diphosphate]: the Viscosity with biosimilar AVASTIN® ([Excipient] 0.10 M, [mAb] 215 mg/mL, 25° C., pH 7) was determined as 76.6 ± 2.2 cP.
